From patent US20260335294A1, “TREATING CONGENITAL DISORDERS OF GLYCOSYLATION” (Mayo Foundation for Medical Education and Research, priority 2022, published 2026)
Marks after values point to notes of the source that are not given here.

Legend:
PMM2-CDG patients [1] = assay: Modified Brief Ataxia Rating Scale (BARS) in patients on epalrestat; type: in vivo, human
Source text: (§1) The primary objective of the study was to assess the efficacy and safety of epalrestat treatment in 3 PMM2-CDG pediatric subjects prior to a planned Phase III clinical trial (Oral epalrestat therapy in Pediatric Subjects with PMM2-CDG, NCT04925960). The secondary objective was to assess the ability of epalrestat to improve clinically relevant aspects of PMM2-CDG such as increased urine polyols (sorbitol, mannitol), abnormal glycosylation (carbohydrate deficient transferrin), abnormal coagulation (ATIII=antithrombin III), impaired liver function (ALT=Alanine Transaminase, AST=Aspartate Transaminase), neurologic function (Brief Ataxia Rating Scale=BARS), severity of phenotype (Nijmegen Pediatric CDG Rating Scale=NPCRS). The ability of epalrestat to inhibit polyol production was monitored by evaluating urine polyol levels (sorbitol, mannitol), which are elevated in PMM2-CDG. Next, carbohydrate deficient transferrin, which is abnormal in PMM2-CDG, was evaluated in order to assess improvement of glycosylation following epalrestat treatment. CDT mono-oligo/dioligo ratio and a-oligo/dioligo ratio are used to evaluate glycosylation abnormalities. Transferrin normally occurs with two glycan chains (di-oligo). In the case of glycosylation abnormalities, glycan chains are missing (A-oligo transferrin has no glycan chains, mono-oligo has one glycan chain, di-oligo has two glycan chains). The higher ratio of a-oligo/di-oligo and mono-oligo/di-oligo indicate glycosylation abnormalities are present. Therefore, improvement in a-oligo/di-oligo and mono-oligo/di-oligo ratios can be used to monitor improvement or worsening of glycosylation status. Changes in the liver enzymes AST, ALT, which are frequently elevated in PMM2-CDG, were monitored both as part of a safety study and as part of monitoring clinical improvement in coagulation. Neurologic improvement was assessed by modified BARS scores in 2 patients (3rd patient was not eligible for the test due to age at the start of the trial). NPCRS was assessed at every visit to assess changes in the severity of the patients' phenotype. Additionally, the frequency of adverse events, changes in vital signs, complete blood count, and changes in BMI were monitored.
(§2) Two patients were started on epalrestat on single patient investigational new drug (IND) (P5 IRB: 19-010017; IND #145262; P6 Protocol PMM2-CDG-001/A). Epalrestat was initiated on the parents' own initiative in the third patient (P7). Two patients were in their second year of epalrestat treatment, while the third, was in the 3rd year of treatment. Physical, neurological, and biochemical examinations were performed in 3 PMM2-CDG patients at baseline, and at every three months after the start of the epalrestat treatment. Patients underwent NPCRS phenotype severity assessment and biological sampling at every visit. Epalrestat (Ono Pharmaceuticals, Osaka, Japan) was taken orally 3 times per day (TID) before meals in a divided dose, with dosage escalation throughout the treatment. The pharmacological profile of epalrestat was as described elsewhere (Ligezka et al, Ann. Neurol., 90(6):887-900 (2021)). The starting dosage in P5 and P6 was 0.8 mg/kg/day, while P7 was started on 0.5 mg/kg/day due to their young age. P7 dosage was increased to 0.8 mg/day after a month, once safety was established. Blood and urine samples were collected routinely. Urine polyols, carbohydrate deficient transferrin (CDT), anti-thrombin III (ATIII), liver enzymes (ALT, AST), and complete blood count (CBC) were performed. Modified Brief Ataxia Rating Scale was used to assess ataxia in the 2 patients (P5, P6; P7 was not eligible for the test due to age). The modified BARS scale included Archimedes spiral test, but not the abnormalities of the ocular pursuit system and the scale range was 0-54. Goal attainment scale (GAS) was administered as described per study protocol (ClinicalTrials.gov Identifier: NCT04199000). […]

PMM2-CDG patients [2] = assay: Urine polyols (sorbitol, mannitol) in patients on epalrestat; type: in vivo, human; conditions: for Urine Sorbitol: normal <5; for Urine Mannitol: normal < 20
Source text: as §1, §2

PMM2-CDG patients [3] = assay: Liver enzymes (AST, ALT) in patients on epalrestat; type: in vivo, human; conditions: for ALT: C < 45 U/l; for AST: C: < 50 U/l
Source text: as §1, §2

pmm2 mutant zebrafish = assay: Zebrabox motility assay; type: in vivo
Method: Zebrabox Motility Assay Progeny of a pmm2^sa1050/+ (pmm2^m/+) mating were collected and raised in the light following standard protocols. […] Embryos were also fed a small number of rotifers daily once behavioral readings were completed. Locomotor activity (swim paths, speeds) was monitored for ten-minute intervals from 6-10 dpf using the Zebrabox System (ViewPoint Inc., Toronto, Canada). Data was analyzed and graphed using GraphPad Prism.
Then, both wt and pmm2 mutant zebrafish were treated with 20 µM daily epalrestat, which increased the distance swam and the number of swim events initiated in the pmm2 mutant zebrafish (FIG. 5 C,D). The improvement was most significant at 6 dpf and 7 dpf (FIG. 5 C,D).

PMM2-CDG patients [4] = assay: Carbohydrate deficient transferrin (CDT) in patients on epalrestat; type: in vivo, human; conditions: for CDT a-oligo/di-oligo ratio: C < 0.011; for CDT mono-oligo/di-oligo ratio: C < 0.06
Source text: as §1, §2

[5] = P6, Baseline column: first available results 3 months after starting treatment, 0.8 mg/kg day
[6] = 20 μM daily (printed 20 M), pmm2 mutant
[7] = P7, Baseline column: first available results 3 months after starting treatment, 0.5, 0.8 mg/kg day

CC(/C=C1\SC(=S)N(CC(=O)O)C1=O)=C\c1ccccc1 [epalrestat]
Modified BARS (max 54) (PMM2-CDG patients [1]; P5, 12 months, 1.5 mg/kg day, baseline 39): 29
Modified BARS (max 54) (PMM2-CDG patients [1]; P5, 24 months, 2 mg/kg day, baseline 39): 33
Modified BARS (max 54) (PMM2-CDG patients [1]; P5, 28 months, 3 mg/kg day, baseline 39): 30
ataxia (modified BARS scores) (PMM2-CDG patients [1]; P5, P6, words): improvement in ataxia
Modified BARS (max 54) (PMM2-CDG patients [1]; P6, 12 months, 1.5 mg/kg day, baseline 45): 29
Modified BARS (max 54) (PMM2-CDG patients [1]; P6, 18 months, 3 mg/kg day, baseline 45): 27
Urine Sorbitol (PMM2-CDG patients [2]; P5, 12 months, 1.5 mg/kg day, baseline 19.9): 10.7 mmol/mol Cr
Urine Mannitol (PMM2-CDG patients [2]; P5, 12 months, 1.5 mg/kg day, baseline 648.6): 32.6 mmol/mol Cr
Urine Sorbitol (PMM2-CDG patients [2]; P5, 24 months, 2 mg/kg day, baseline 19.9): 7.5 mmol/mol Cr
Urine Mannitol (PMM2-CDG patients [2]; P5, 24 months, 2 mg/kg day, baseline 648.6): 45.3 mmol/mol Cr
Urine Sorbitol (PMM2-CDG patients [2]; P5, 28 months, 3 mg/kg day, baseline 19.9): 7.86 mmol/mol Cr
Urine Mannitol (PMM2-CDG patients [2]; P5, 28 months, 3 mg/kg day, baseline 648.6): 93.19 mmol/mol Cr
urine mannitol during treatment (PMM2-CDG patients [2]; P5, underwent a fructose loading test): A fluctuation in mannitol
urine polyol levels (PMM2-CDG patients [2]; P5-P7, words): decreased
urine polyol levels during treatment (PMM2-CDG patients [2]; P5-P7, words): remained mostly stable
Urine Sorbitol (PMM2-CDG patients [2]; P6, 12 months, 1.5 mg/kg day): 12.81 mmol/mol Cr
Urine Mannitol (PMM2-CDG patients [2]; P6, 12 months, 1.5 mg/kg day): 14.77 mmol/mol Cr
Urine Sorbitol (PMM2-CDG patients [2]; P6, 18 months, 3 mg/kg day): 9 mmol/mol Cr
Urine Mannitol (PMM2-CDG patients [2]; P6, 18 months, 3 mg/kg day): 47 mmol/mol Cr
Urine Sorbitol (PMM2-CDG patients [2]; [5]): 50.80# mmol/mol Cr
Urine Mannitol (PMM2-CDG patients [2]; [5]): 23.90# mmol/mol Cr
Urine Sorbitol (PMM2-CDG patients [2]; P7, 12 months, 1.5 mg/kg day, baseline 9.85): 0.03 mmol/mol Cr
Urine Mannitol (PMM2-CDG patients [2]; P7, 12 months, 1.5 mg/kg day, baseline 10.37): 1.89 mmol/mol Cr
ALT (PMM2-CDG patients [3]; P5, 12 months, 1.5 mg/kg day, baseline 23): 24 U/L
AST (PMM2-CDG patients [3]; P5, 12 months, 1.5 mg/kg day, baseline 48): 37 U/L
ALT (PMM2-CDG patients [3]; P5, 24 months, 2 mg/kg day, baseline 23): 25 U/L
AST (PMM2-CDG patients [3]; P5, 24 months, 2 mg/kg day, baseline 48): 34 U/L
ALT (PMM2-CDG patients [3]; P5, 28 months, 3 mg/kg day, baseline 23): 25 U/L
AST (PMM2-CDG patients [3]; P5, 28 months, 3 mg/kg day, baseline 48): 40 U/L
liver transaminase levels (PMM2-CDG patients [3]; P5-P7, words): improvement
AST (PMM2-CDG patients [3]; P6, 12 months, 1.5 mg/kg day, baseline 58): 40 U/L
ALT (PMM2-CDG patients [3]; P6, 12 months, 1.5 mg/kg day, baseline 67): 32 U/L
AST (PMM2-CDG patients [3]; P6, 18 months, 3 mg/kg day, baseline 58): 38 U/L
ALT (PMM2-CDG patients [3]; P6, 18 months, 3 mg/kg day, baseline 67): 49 U/L
AST (PMM2-CDG patients [3]; P7, 12 months, 1.5 mg/kg day, baseline 548): 80 U/L
ALT (PMM2-CDG patients [3]; P7, 12 months, 1.5 mg/kg day, baseline 997): 105 U/L
swimming behavior (pmm2 mutant zebrafish; 10 μM daily, wt and pmm2 mutant): no improvement in swimming behavior
distance swam (pmm2 mutant zebrafish; [6]): increased
number of swim events initiated (pmm2 mutant zebrafish; [6]): significantly increased
swimming distance at 6 dpf and 7 dpf (pmm2 mutant zebrafish; 20 μM daily, pmm2 zebrafish, wt n=42-46, pmm2 n=22-51): significantly increased
CDT a-oligo/di-oligo ratio (PMM2-CDG patients [4]; P5, 12 months, 1.5 mg/kg day, baseline 0.005): 0.003
CDT mono-oligo/di-oligo ratio (PMM2-CDG patients [4]; P5, 12 months, 1.5 mg/kg day, baseline 0.09): 0.06
CDT a-oligo/di-oligo ratio (PMM2-CDG patients [4]; P5, 24 months, 2 mg/kg day, baseline 0.005): 0.010
CDT mono-oligo/di-oligo ratio (PMM2-CDG patients [4]; P5, 24 months, 2 mg/kg day, baseline 0.09): 0.09
CDT a-oligo/di-oligo ratio (PMM2-CDG patients [4]; P5, 28 months, 3 mg/kg day, baseline 0.005): 0.08
CDT mono-oligo/di-oligo ratio (PMM2-CDG patients [4]; P5, 28 months, 3 mg/kg day, baseline 0.09): 0.07
CDT (PMM2-CDG patients [4]; P5, words): Normalization of CDT
CDT a-oligo/di-oligo ratio (PMM2-CDG patients [4]; P6, 12 months, 1.5 mg/kg day, baseline 0.196): 0.111
CDT mono-oligo/di-oligo ratio (PMM2-CDG patients [4]; P6, 12 months, 1.5 mg/kg day, baseline 0.69): 0.43
CDT a-oligo/di-oligo ratio (PMM2-CDG patients [4]; P6, 18 months, 3 mg/kg day, baseline 0.196): 0.105
CDT mono-oligo/di-oligo ratio (PMM2-CDG patients [4]; P6, 18 months, 3 mg/kg day, baseline 0.69): 0.47
CDT (PMM2-CDG patients [4]; P6, 18 months, escalating doses, words): significant improvement in CDT with a steady trend towards normalization
CDT a-oligo/di-oligo ratio (PMM2-CDG patients [4]; P7, 12 months, 1.5 mg/kg day): 1.033
CDT mono-oligo/di-oligo ratio (PMM2-CDG patients [4]; P7, 12 months, 1.5 mg/kg day): 1.58
CDT a-oligo/di-oligo ratio (PMM2-CDG patients [4]; [7]): 0.919#
CDT mono-oligo/di-oligo ratio (PMM2-CDG patients [4]; [7]): 1.60#
CDT (PMM2-CDG patients [4]; P7, one-year mark, words): slight improvement
CDT (PMM2-CDG patients [4]; overall, words): improvement
